# Laboratory results: US9920010B2, “CXCR7 receptor modulators” (IDORSIA PHARMACEUTICALS LTD, priority 2013, dated 2018)
# Target: T1, CXCR7 (Homo sapiens, UniProt P25106)
# T1 construct: host or cells: CHO-K1 (PathHunter CHO-K1 CXCR7 b-arrestin cell line, stably transfected)
# Experiment: PathHunter CHO-K1 CXCR7 b-arrestin recruitment assay (CXCR7 agonistic activity)
# Assay type: cell-based
# Conditions: PathHunter CHO-K1 CXCR7 b-arrestin cell line
# Experimental: The CXCl12 receptor and CXCR7 agonistic activities of the compounds of formula (I) are determined in accordance with the following experimental method.
# The assay is using the PathHunter™ CHO-K1 CXCR7 b-arrestin cell line from DiscoverX. The system is based on the Enzyme Fragment Complementation Technology. Two complementing fragments of the b-galactosidase enzyme are expressed within stably transfected cells. The larger portion of b-gal, termed EA for Enzyme Acceptor, is fused to the C-terminus of b-arrestin 2. The smaller fragment, termed ProLink™ tag, is fused to CXCR7 at the C-terminus. Upon activation, b-arrestin is recruited which forces the interaction of ProLink and EA, allowing complementation of the two fragments of b-gal and the formation of a functional enzyme which is capable of hydrolysing the substrate and generating a chemiluminescent signal.
# CHO-K1 CXCR7 b-arrestin cells are detached from culture dishes with a cell dissociation buffer (Invitrogen, #13151-014) and collected in growing medium (F12 HAMS 90% (v/v)/FCS 10% (v/v), Penicillin/streptomycin 1% (v/v)). 5000 cells per well (in 20 μl) are seeded in a 384 well plate (white-walled, clear bottom; BD Falcon #353274). The plate is incubated at 37° C./5% CO2 for 24 hours. Medium is then replaced by 20 μl OPTIMEM (Invitrogen #31985) for 3 to 4 hours. Test compounds are dissolved at 10 mM in DMSO and serially diluted in DMSO to 200× of the final concentration for dose response curves. Compounds are then diluted 1:33.3 in HBSS1×. 5 μl/well of HBSS1×/20 mM HEPES/0.2% BSA are added to the assay plate followed by addition of 5 μl/well of diluted compounds. CXCL12 (Peprotech #300-28A) may be used as a reference agonist. The plate is incubated for 90 minutes at 37° C. 12 μl of detection reagent (Path Hunter Detection Kit, DiscoveRx, #93-0001) is transferred to the assay plate and to the plate is incubated for 1 hour at room temperature. Luminescent signal is read in a microplate reader (FLUOstar Optima, bmg). The calculated EC50 values may fluctuate depending on the daily cellular assay performance. Fluctuations of this kind are known to those skilled in the art. Average EC50 values from several measurements are given as geometric mean values.
# T1 sequence (P25106 whole entry): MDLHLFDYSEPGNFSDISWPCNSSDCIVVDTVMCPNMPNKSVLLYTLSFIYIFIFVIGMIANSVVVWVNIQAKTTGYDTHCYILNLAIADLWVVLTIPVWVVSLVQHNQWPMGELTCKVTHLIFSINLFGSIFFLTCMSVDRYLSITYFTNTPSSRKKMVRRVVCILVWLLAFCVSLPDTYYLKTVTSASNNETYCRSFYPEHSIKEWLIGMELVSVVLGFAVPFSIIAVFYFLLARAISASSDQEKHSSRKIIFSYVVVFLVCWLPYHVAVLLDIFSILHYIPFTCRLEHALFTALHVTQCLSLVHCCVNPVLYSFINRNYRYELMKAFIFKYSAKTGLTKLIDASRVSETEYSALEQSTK
# T1 sequence (P32121 whole entry partner): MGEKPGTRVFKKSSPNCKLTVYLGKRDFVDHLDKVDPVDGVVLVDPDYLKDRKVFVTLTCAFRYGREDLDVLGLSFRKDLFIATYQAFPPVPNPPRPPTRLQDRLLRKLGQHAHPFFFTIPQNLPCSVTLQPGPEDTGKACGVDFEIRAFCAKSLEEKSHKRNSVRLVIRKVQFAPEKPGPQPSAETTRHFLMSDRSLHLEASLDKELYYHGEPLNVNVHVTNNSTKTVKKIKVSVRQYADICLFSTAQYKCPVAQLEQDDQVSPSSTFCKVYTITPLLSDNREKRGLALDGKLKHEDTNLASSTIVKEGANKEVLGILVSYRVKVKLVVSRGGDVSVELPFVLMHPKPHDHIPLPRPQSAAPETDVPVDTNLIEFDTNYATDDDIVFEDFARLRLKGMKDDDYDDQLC
row,SMILES,EC50 [nM]
1,"O=C(CNc1cccc2c1CCN(CC1CC1)C2)N(Cc1ccccc1)C1CCS(=O)(=O)C1 (racemic) [Example 70, rac-N-Benzyl-2-(2-cyclopropylmethyl-1,2,3,4-tetrahydro-isoquinolin-5-ylamino)-N-(1,1-dioxo-tetrahydro-1|6-thiophen-3-yl)-acetamide]",189
2,"CCn1ccc(C(C)N(Cc2ccccc2C(F)(F)F)C(=O)CNc2cccc3c2CCN(CC2CC2)C3)n1 (racemic) [Example 80, rac-2-(2-Cyclopropylmethyl-1,2,3,4-tetrahydro-isoquinolin-5-ylamino)-N-[1-(1-ethyl-1H-pyrazol-3-yl)-ethyl]-N-(2-trifluoromethyl-benzyl)-acetamide]",47
3,"CCOC(=O)[C@@H]1C[C@H]1CN(Cc1ccccc1C(F)(F)F)C(=O)CNc1cccc2c1CCN(CC1CC1)C2 (racemic) [Example 81, rac-trans-2-{[[2-(2-Cyclopropylmethyl-1,2,3,4-tetrahydro-isoquinolin-5-ylamino)-acetyl]-(2-trifluoromethyl-benzyl)-amino]-methyl}-cyclopropanecarboxylic acid ethyl ester]",126
4,"O=C(CNc1cccc2c1CCN(CC1CC1)C2)N(Cc1ccccc1)C1CCNC1 (racemic) [Example 178, rac-N-Benzyl-2-(2-cyclopropylmethyl-1,2,3,4-tetrahydro-isoquinolin-5-ylamino)-N-pyrrolidin-3-yl-acetamide]",25
5,"CN1CCC(N(Cc2ccccc2)C(=O)CNc2cccc3c2CCN(CC2CC2)C3)C1 (racemic) [Example 180, rac-N-Benzyl-2-(2-cyclopropylmethyl-1,2,3,4-tetrahydro-isoquinolin-5-ylamino)-N-(1-methyl-pyrrolidin-3-yl)-acetamide]",8
6,"CC1c2cccc(NCC(=O)N(CCN(C)C)Cc3ccccc3C(F)(F)F)c2CCN1CC1CC1 (racemic) [Example 211, rac-2-((2-(Cyclopropylmethyl)-1-methyl-1,2,3,4-tetrahydroisoquinolin-5-yl)amino)-N-(2-(dimethylamino)ethyl)-N-(2-(trifluoromethyl)benzyl)acetamide]",2
7,"CC1Cc2c(cccc2NCC(=O)N(CCN(C)C)Cc2ccccc2C(F)(F)F)CN1CC1CC1 (racemic) [Example 212, rac-2-((2-(Cyclopropylmethyl)-3-methyl-1,2,3,4-tetrahydroisoquinolin-5-yl)amino)-N-(2-(dimethylamino)ethyl)-N-(2-(trifluoromethyl)benzyl)acetamide]",6
8,"CC(O)CN(Cc1ccccc1C(F)(F)F)C(=O)CNc1cccc2c1CCN(CC1CC1)C2 (racemic) [Example 240, rac-2-(2-Cyclopropylmethyl-1,2,3,4-tetrahydro-isoquinolin-5-ylamino)-N-(2-hydroxy-propyl)-N-(2-trifluoromethyl-benzyl)-acetamide]",15
9,"O=C(CNc1cccc2c1CCN(CC1CC1)C2)N(Cc1ccccc1C(F)(F)F)CC(O)C(F)(F)F (racemic) [Example 242, rac-2-(2-Cyclopropylmethyl-1,2,3,4-tetrahydro-isoquinolin-5-ylamino)-N-(3,3,3-trifluoro-2-hydroxy-propyl)-N-(2-trifluoromethyl-benzyl)-acetamide]",24
10,"CN(C)CCN(Cc1ncccc1Cl)C(=O)CNc1cccc2c1CCN(C(=O)[C@@H]1C[C@@H]1F)C2 (racemic) [Example 293, rac-N-(3-Chloro-pyridin-2-ylmethyl)-N-(2-dimethylamino-ethyl)-2-[2-((1S*,2S*)-2-fluoro-cyclopropanecarbonyl)-1,2,3,4-tetrahydro-isoquinolin-5-ylamino]-acetamide]",20
11,"O=C(CNc1cccc2c1CCN(C(=O)[C@@H]1C[C@@H]1F)C2)N(CCN1CCC(F)(F)CC1)Cc1ncccc1Cl (racemic) [Example 294, rac-N-(3-Chloro-pyridin-2-ylmethyl)-N-[2-(4,4-difluoro-piperidin-1-yl)-ethyl]-2-[2-((1S*,2S*)-2-fluoro-cyclopropanecarbonyl)-1,2,3,4-tetrahydro-isoquinolin-5-ylamino]-acetamide]",237
12,"CN(C)CCN(Cc1ncccc1Cl)C(=O)/C=C/c1cccc2c1CCN(C(=O)[C@H]1C[C@H]1F)C2 (racemic) [Example 330, rac-(E)-N-(3-Chloro-pyridin-2-ylmethyl)-N-(2-dimethylamino-ethyl)-3-[2-((1R*,2R*)-2-fluoro-cyclopropanecarbonyl)-1,2,3,4-tetrahydro-isoquinolin-5-yl]-acrylamide]",11
13,"CC(C)(O)CN(Cc1ncccc1Cl)C(=O)/C=C/c1cccc2c1CCN(C(=O)[C@H]1C[C@H]1F)C2 (racemic) [Example 331, rac-(E)-N-(3-Chloro-pyridin-2-ylmethyl)-3-[2-((1R*,2R*)-2-fluoro-cyclopropanecarbonyl)-1,2,3,4-tetrahydro-isoquinolin-5-yl]-N-(2-hydroxy-2-methyl-propyl)-acrylamide]",314
14,"O=C(/C=C/c1cccc2c1CCN(C(=O)[C@H]1C[C@H]1F)C2)N(CCN1CCC(F)(F)CC1)Cc1ncccc1Cl (racemic) [Example 332, rac-(E)-N-(3-Chloro-pyridin-2-ylmethyl)-N-[2-(4,4-difluoro-piperidin-1-yl)-ethyl]-3-[2-((1R*,2R*)-2-fluoro-cyclopropanecarbonyl)-1,2,3,4-tetrahydro-isoquinolin-5-yl]-acrylamide]",96
15,"CC(Oc1cccc2c1CCN(CC1CC1)C2)C(=O)N(CCN(C)C)Cc1ccccc1C(F)(F)F (racemic) [Example 350, rac-2-(2-Cyclopropylmethyl-1,2,3,4-tetrahydro-isoquinolin-5-yloxy)-N-(2-dimethylamino-ethyl)-N-(2-trifluoromethyl-benzyl)-propionamide]",32
16,"CN(C)CCN(Cc1ccccc1C(F)(F)F)C(=O)CNc1cccc2c1CCN(C1CCOC1)C2 (racemic) [Example 351, rac-N-(2-Dimethylamino-ethyl)-2-[2-(tetrahydro-furan-3-yl)-1,2,3,4-tetrahydro-isoquinolin-5-ylamino]-N-(2-trifluoromethyl-benzyl)-acetamide]",34
17,"COCC(C)N1CCc2c(cccc2NCC(=O)N(CCN(C)C)Cc2ccccc2C(F)(F)F)C1 (racemic) [Example 354, rac-N-(2-Dimethylamino-ethyl)-2-[2-(2-methoxy-1-methyl-ethyl)-1,2,3,4-tetrahydro-isoquinolin-5-ylamino]-N-(2-trifluoromethyl-benzyl)-acetamide]",11
18,"CC(C)C(C)N1CCc2c(cccc2NCC(=O)N(CCN(C)C)Cc2ccccc2C(F)(F)F)C1 (racemic) [Example 355, rac-N-(2-Dimethylamino-ethyl)-2-[2-(1,2-dimethyl-propyl)-1,2,3,4-tetrahydro-isoquinolin-5-ylamino]-N-(2-trifluoromethyl-benzyl)-acetamide]",10
19,"CCC(C)N1CCc2c(cccc2NCC(=O)N(CCN(C)C)Cc2ccccc2C(F)(F)F)C1 (racemic) [Example 356, rac-2-(2-sec-Butyl-1,2,3,4-tetrahydro-isoquinolin-5-ylamino)-N-(2-dimethylamino-ethyl)-N-(2-trifluoromethyl-benzyl)-acetamide]",6
20,"CN(C)CCN(Cc1ccccc1C(F)(F)F)C(=O)CNc1cccc2c1CCN(C(=O)[C@H]1C[C@H]1F)C2 (racemic) [Example 363, rac-N-(2-Dimethylamino-ethyl)-2-[2-((1R*,2R*)-2-fluoro-cyclopropanecarbonyl)-1,2,3,4-tetrahydro-isoquinolin-5-ylamino]-N-(2-trifluoromethyl-benzyl)-acetamide]",3
21,"CN(C)CCN(Cc1ncccc1C(F)(F)F)C(=O)CNc1cccc2c1CCN(C1CCOC1)C2 (racemic) [Example 365, rac-N-(2-Dimethylamino-ethyl)-2-[2-(tetrahydro-furan-3-yl)-1,2,3,4-tetrahydro-isoquinolin-5-ylamino]-N-(3-trifluoromethyl-pyridin-2-ylmethyl)-acetamide]",35
22,"O=C(CNc1cccc2c1CCN(C(=O)[C@@H]1C[C@@H]1F)C2)N(Cc1ccccc1C(F)(F)F)CC1(O)CCCC1 (racemic) [Example 372, rac-2-[2-((1S*,2S*)-2-Fluoro-cyclopropanecarbonyl)-1,2,3,4-tetrahydro-isoquinolin-5-ylamino]-N-(1-hydroxy-cyclopentylmethyl)-N-(2-trifluoromethyl-benzyl)-acetamide]",271
23,"CN(C)CCN(Cc1ccccc1C(F)(F)F)C(=O)CNc1cccc2c1CCN(C(=O)C1CC1(F)F)C2 (racemic) [Example 570, rac-2-[2-(2,2-Difluoro-cyclopropanecarbonyl)-1,2,3,4-tetrahydro-isoquinolin-5-ylamino]-N-(2-dimethylamino-ethyl)-N-(2-trifluoromethyl-benzyl)-acetamide]",14
